# Tests used:
# [1] = test system: angiogenesis-related genes (VEGF-R1, VEGF-R2, VEGF-R3, VEGF-A, VEGF-B, CD31) in mouse uteri; assay: Real-time quantitative PCR uterine gene expression profile after axitinib; assay type: in vivo, mice; conditions: RT-PCR
# Protocol: To study the efficacy of axitinib treatment at the molecular level, the expression levels of vascular marker CD31 and angiogenic growth factors VEGF-A, VEGF-B, VEGF receptor R1 (VEGF-R1), VEGF-R2, VEGF-R3, placental growth factor PlGF, and collagen were measured. Real-time quantitative PCR was performed in a random selection of uterine specimens exposed to axitinib (dose II, n=7; dose I, n=6) or placebo (CMC, n=7). The expression of each gene was normalized to the household gene cyclophilin A.
# [2] = test system: tamoxifen-induced adenomyosis in CD-1 mice; assay: Oral axitinib treatment in tamoxifen-induced adenomyosis mouse model; assay type: in vivo
# Protocol: After validation of the model, this model was used to test treatment with anti-vascular endothelial growth factor receptor 2 (VEGFR-2) tyrosine kinase inhibitor axitinib (A-1107; LC Laboratories). To induce adenomyosis, 108 mice received neonatal tamoxifen treatment and were randomly allocated to receive treatment or placebo. On day 42, anti-angiogenesis treatment commenced by oral axitinib treatment or placebo. Axitinib was dissolved in 0.5% sodium carboxymethylcellulose (CMC) at a dose of 25 mg/kg body weight (dose I) or at a dose of 3 mg/kg (dose II). All animals received treatment by daily oral gavage at 5 μl/g bodyweight with axitinib (dose I/II) or placebo (CMC) for a time period of three weeks. During this period, all animals had daily animal welfare observations, and were weighed at a minimum of three times per week. The experimental groups are depicted in FIG. 1.
# The uteri were cut in half, one horn (right/left horn randomized) was fixed in 4% formaldehyde at room temperature for 48 hours.
# Uterine tissue was embedded in paraffin and sliced into transverse oriented sections of 5 μm, with three sections of one uterine horn on one microscope slide. […] Paraffin-embedded sections were dewaxed in xylene, rehydrated in 100%, 96%, and 70% ethanol, and washed in PBS (pH 7.4). […] After washing in PBS, aspecific binding was blocked by 3% BSA/PBS for one hour. After adding primary antibodies diluted in 0.5% BSA/PBS, sections were incubated overnight at 4° C. […] After washing with PBS, horseradish peroxidase (HRP)—streptavidin (strep) was added (cat. no. ab6734; 1:200; Dako Cytomation) diluted in 0.5% BSA/PBS, for thirty minutes. The sections were then washed in PBS, afterwards 3,3′-Diaminobenzidine (DAB) was added (60 μl DAB; 1 μl 30% H2O2; 1 mL PBS), for eight minutes.
# [3] = test system: tamoxifen-induced adenomyosis in a murine model; assay: Adenomyosis severity index (grade x affected surface area) in tamoxifen-induced adenomyosis murine model; assay type: in vivo, mice; conditions: dose II 3 mg/kg, post hoc p<0.05
# Description: The adenomyosis severity index in tamoxifen-induced adenomyosis in a murine model has been determined based on the abovementioned results of grade of adenomyosis and adenomyosis-affected surface area. Specifically, the grade of adenomyosis (determined on H&E slides as described above) was multiplied by the adenomyosis-affected surface area (determined on vimentin-stained slides). The adenomyosis severity index is the average of all sections analyzed per uterine horn. The adenomyosis severity index was determined for placebo group (CMC-treated mice) and two axitinib-treated groups (dose II—AX3: axitinib 3 mg/kg; dose I—AX25: axitinib 25 mg/kg).
# [4] = test system: tamoxifen-induced mice model; conditions: from week 16 of age; cited from earlier work
# [5] = test system: uterus of mice with tamoxifen-induced adenomyosis
# Description: Sunitinib is another angiogenesis inhibitor and a highly-fluorescent molecule, therefore it will be used as a model drug to microscopically assess uptake and distribution in uterine tissue after termination.
# Intra-uterine delivery of a gel containing slow-release Sunitinib in low dose will also be tested as an alternative treatment for oral Axinitib in mice with tamoxifen-induced adenomyosis.
# [6] = test system: uterine adenomyosis in SHN mice; conditions: cited from earlier work
# [7] = test system: CD-1 mice; assay: Validation of tamoxifen-induced mouse adenomyosis model
# [8] = test system: human adenomyosis lesions xenografted in mice; conditions: administered 14 days after xenografting; cited from earlier work
# [9] = dose I 25 mg/kg daily oral gavage three weeks
# [10] = dose I 25 mg/kg daily oral gavage three weeks, N = 34
# [11] = dose II 3 mg/kg daily oral gavage three weeks
# [12] = dose II 3 mg/kg daily oral gavage three weeks, N = 34
# [13] = tamoxifen 1 mg/kg oral day 2-5 after birth, six weeks, n = 6
# [14] = tamoxifen 1 mg/kg, six weeks, n = 6
compound,measurement,setting,value
"CNC(=O)c1ccccc1Sc1ccc2c(/C=C/c3ccccn3)n[nH]c2c1 [Axitinib, axitinib]","Down-regulation of all VEGF receptors (1-3), as well as VEGF-A and VEGF","[1]; dose I axitinib, p<0.05",more than 60%
same,Decrease of expression of endothelial cell marker CD31,"[1]; dose I axitinib, p=0.06",85%
same,Down-regulation of VEGF-R1 expression,"[1]; dose II axitinib, p=0.003",63%
same,Decrease of expression of endothelial cell marker CD31,"[1]; dose II axitinib, p=0.04",85%
same,No signs of adenomyosis (% of mice),[2]; [9],"11,8%"
same,Presented with adenomyosis (% of mice),[2]; [9],"88,2%"
same,Adenomyosis No (number of mice),[2]; [10],4
same,Adenomyosis Yes (number of mice),[2]; [10],30
same,"Weight end treatment, Mean",[2]; [10],29.9 g
same,"Ectopic glands, median","[2]; dose I 25 mg/kg, N = 34",3.0
same,Grade 0 (% of mice),"[2]; dose I 25 mg/kg, N = 34",(14.7%)
same,Grade 0 (number of mice),"[2]; dose I 25 mg/kg, N = 34",5
same,Grade 1 (% of mice),"[2]; dose I 25 mg/kg, N = 34",(29.4%)
same,Grade 1 (number of mice),"[2]; dose I 25 mg/kg, N = 34",10
same,Grade 2 (% of mice),"[2]; dose I 25 mg/kg, N = 34",(50.0%)
same,Grade 2 (number of mice),"[2]; dose I 25 mg/kg, N = 34",17
same,Grade 3 (% of mice),"[2]; dose I 25 mg/kg, N = 34",(5.9%)
same,Grade 3 (number of mice),"[2]; dose I 25 mg/kg, N = 34",2
same,"Ratio thickest myometrium/transverse uterine diameter, median","[2]; dose I 25 mg/kg, N = 34",0.18
same,"Ratio thickest myometrium/uterine wall, median","[2]; dose I 25 mg/kg, N = 34",0.49
same,"Ratio thinnest myometrium/uterine wall, median","[2]; dose I 25 mg/kg, N = 34",0.21
same,"Ratio thinnest/thickest myometrium, median","[2]; dose I 25 mg/kg, N = 34",0.26
same,Spread Diffuse (number of mice),"[2]; dose I 25 mg/kg, N = 34",18
same,Spread Focal (number of mice),"[2]; dose I 25 mg/kg, N = 34",8
same,Spread None (% of mice),"[2]; dose I 25 mg/kg, N = 34",(14.7%)
same,Spread None (number of mice),"[2]; dose I 25 mg/kg, N = 34",5
same,Adenomyosis No (% of mice),"[2]; dose I + II pooled, N = 68",(14.9%)
same,Adenomyosis No (number of mice),"[2]; dose I + II pooled, N = 68",10
same,Adenomyosis Yes (% of mice),"[2]; dose I + II pooled, N = 68",(85.1%)
same,Adenomyosis Yes (number of mice),"[2]; dose I + II pooled, N = 68",57
same,"Ectopic areas, Median","[2]; dose I + II pooled, N = 68",1.3
same,"Ectopic glands, median","[2]; dose I + II pooled, N = 68",2.8
same,Grade 0/1 (% of mice),"[2]; dose I + II pooled, N = 68",(40.3%)
same,Grade 0/1 (number of mice),"[2]; dose I + II pooled, N = 68",27
same,Grade 2/3 (% of mice),"[2]; dose I + II pooled, N = 68",(59.7%)
same,Grade 2/3 (number of mice),"[2]; dose I + II pooled, N = 68",40
same,Spread Diffuse (% of mice),"[2]; dose I + II pooled, N = 68",(54.0%)
same,Spread Diffuse (number of mice),"[2]; dose I + II pooled, N = 68",34
same,Spread Focal (% of mice),"[2]; dose I + II pooled, N = 68",(30.2%)
same,Spread Focal (number of mice),"[2]; dose I + II pooled, N = 68",19
same,Spread None (% of mice),"[2]; dose I + II pooled, N = 68",(15.9%)
same,Spread None (number of mice),"[2]; dose I + II pooled, N = 68",10
same,"Weight end treatment, Mean","[2]; dose I + II pooled, N = 68",28.7 g
same,No signs of adenomyosis (% of mice),[2]; [11],"14,7%"
same,Presented with adenomyosis (% of mice),[2]; [11],"82,4%"
same,Adenomyosis No (number of mice),[2]; [12],5
same,Adenomyosis Yes (number of mice),[2]; [12],28
same,"Weight end treatment, Mean",[2]; [12],28.4 g
same,"Ectopic glands, median","[2]; dose II 3 mg/kg, N = 34",2.7
same,Grade 0 (% of mice),"[2]; dose II 3 mg/kg, N = 34",(15.2%)
same,Grade 0 (number of mice),"[2]; dose II 3 mg/kg, N = 34",5
same,Grade 1 (% of mice),"[2]; dose II 3 mg/kg, N = 34",(21.2%)
same,Grade 1 (number of mice),"[2]; dose II 3 mg/kg, N = 34",7
same,Grade 2 (% of mice),"[2]; dose II 3 mg/kg, N = 34",(57.6%)
same,Grade 2 (number of mice),"[2]; dose II 3 mg/kg, N = 34",19
same,Grade 3 (% of mice),"[2]; dose II 3 mg/kg, N = 34",(6.1%)
same,Grade 3 (number of mice),"[2]; dose II 3 mg/kg, N = 34",2
same,"Ratio thickest myometrium/transverse uterine diameter, median","[2]; dose II 3 mg/kg, N = 34",0.18
same,"Ratio thickest myometrium/uterine wall, median","[2]; dose II 3 mg/kg, N = 34",0.54
same,"Ratio thinnest myometrium/uterine wall, median","[2]; dose II 3 mg/kg, N = 34",0.19
same,"Ratio thinnest/thickest myometrium, median","[2]; dose II 3 mg/kg, N = 34",0.23
same,Spread Diffuse (number of mice),"[2]; dose II 3 mg/kg, N = 34",16.4
same,Spread Focal (number of mice),"[2]; dose II 3 mg/kg, N = 34",11
same,Spread None (% of mice),"[2]; dose II 3 mg/kg, N = 34",(15.2%)
same,Spread None (number of mice),"[2]; dose II 3 mg/kg, N = 34",5
same,"Odds ratio, incidence of grade 0/1 vs grade 2/3 adenomyosis, axitinib vs CMC-only","[2]; pooled dose I + II vs placebo, p=0,048",1.33
same,Reduction of adenomyosis severity index compared to placebo-treated mice,[3],48%
O=C(O)/C=C/c1ccc(Cn2ccnc2)cc1 [Ozagrel],Myometrial infiltration,[4],suppressed myometrial infiltration
CCN(CC)CCNC(=O)c1c(C)[nH]c(/C=C2\C(=O)Nc3ccc(F)cc32)c1C [Sunitinib],Uptake in uterine tissue after intra-uterine injection,"[5]; 1% and 0.1% of systemic dose, 4 h and 24 h after injection",uptake throughout the myometrium
same,Toxic effects when delivered locally,"[5]; mouse, in vivo",without any toxic effects
CO[C@@H]1[C@H](OC(=O)NC(=O)CCl)CC[C@]2(CO2)[C@H]1[C@@]1(C)O[C@@H]1CC=C(C)C [TNP-470],Development of signs of uterine adenomyosis,[6]; treatment from one day after pituitary grafting until week 13,did not develop signs of uterine adenomyosis
same,"Mean surface area of blood vessels in the endometrium, relative to control group",[6]; treatment until week 13,60.5%
"CC/C(=C(\c1ccccc1)c1ccc(OCCN(C)C)cc1)c1ccccc1 [Tamoxifen, tamoxifen]",Fibrosis surrounding the adenomyosis affected areas,"[7]; H&E and PTAH staining, tamoxifen-treated group",No signs of fibrosis
same,"Weight, Median","[7]; tamoxifen 1 mg/kg oral day 2-5 after birth, sacrificed after six weeks, n = 6",25.2
same,Adenomyosis No (% of mice),[7]; [13],(0%)
same,Adenomyosis No (number of mice),[7]; [13],0
same,Adenomyosis Yes (% of mice),[7]; [13],(100%)
same,Adenomyosis Yes (number of mice),[7]; [13],6
same,Adenomyosis Yes (% of mice),"[7]; tamoxifen 1 mg/kg oral day 2-5 after birth, six weeks, n = 6, listed as tamoxifen",100%
same,"Ectopic glands, median",[7]; [14],7.5
same,Grade 0 (% of mice),[7]; [14],(0%)
same,Grade 0 (number of mice),[7]; [14],0
same,Grade 1 (% of mice),[7]; [14],(0%)
same,Grade 1 (number of mice),[7]; [14],0
same,Grade 2 (% of mice),[7]; [14],(100%)
same,Grade 2 (number of mice),[7]; [14],6
same,Grade 3 (% of mice),[7]; [14],(0%)
same,Grade 3 (number of mice),[7]; [14],0
same,Grade of adenomyosis developed by all mice,[7]; [14],grade 2
same,"Microvessel density, median, Ectopic endometrium",[7]; [14],4.8
same,"Microvessel density, median, Endometrium",[7]; [14],5.9
same,"Microvessel density, median, Myometrium",[7]; [14],3.0
same,Ratio thickest myometrium/thickest uterine wall (α-SMA),[7]; [14],0.43
same,Ratio thinnest myometrium/thickest myometrium (α-SMA),[7]; [14],0.19
same,Ratio thinnest myometrium/thinnest uterine wall (α-SMA),[7]; [14],0.18
same,Spread Diffuse (% of mice),[7]; [14],(66.7%)
same,Spread Diffuse (number of mice),[7]; [14],4
same,Spread Focal (% of mice),[7]; [14],(33.3%)
same,Spread Focal (number of mice),[7]; [14],2
bevacizumab,MVD and the expression of VEGF,[8],decreased

# — US20260000657A1, “ANTI-ANGIOGENIC THERAPY AS TREATMENT FOR BENIGN UTERINE DISORDERS” (STICHTING AMSTERDAM UMC, priority 2022, published 2026)
